The assay relates to human keratinocytes. Briefly: Growth of human keratinocytes (HKc/HPV16), TGFβ-induced growth arrest. As to conditions: read-out: IC50 of growth inhibition of human keratinocytes, dose-dependent.

One may read the IC50 as the midpoint of a concentration-inhibition curve.

Take “TGFβ: Recombinant human TGFβ1 purchased from Austral Biologicals”: the IC50 was roughly 5 pM.

Source of the values: patent US20090074790A1, “Methods for measuring transforming growth factor beta (TGF-beta) receptor signaling activity and uses thereof” (priority 2004, published 2009).
